Reference: patent US20060205037A1, “Modified transferrin fusion proteins” (priority 2003, published 2006)

How the values were obtained:
[1] = blood; cited from earlier work
db/db mice [2] = assay: food intake and post-prandial blood glucose, db/db mice; format: in vivo
Method: (§1) Mice (N=5 per group) were conditioned to eat once daily (9-10 am) for five days. […] Food intake and blood glucose levels were measured 2, 4, 7 and 24 h after peptide administration.

[3] = c-Fos activation in brain after IP injection; format: in vivo, mice; settings: IP 1 nmol/kg
Method: (§2) Briefly, mice that received IP injections were anesthetized with isoflurane 2 h later and the mice that received ICV injections were anesthetized 1.5 and 24 h later. Intracardiac perfusion with ice-cold 4% paraformaldehyde was immediately carried out. Brains were removed immediately at the end of perfusion, kept in ice-cold 4% parafor maldehyde for 72 h, and then transferred to a solution containing 4% paraformaldehyde and 25% sucrose until they floated. Each brain as cut into 30 μm sections using a sliding microtome with a freezing stage. Brain sections from each animal were placed in a 12-well plate and then processed for immunocytochemistry. The free-floating sections from each animal were first incubated in 0.3% H2O2 for 30 min and then washed 3 times in PBS for 5 min/rinse. Thereafter the sections were incubated in blocking serum (normal goat serum/PBS/0.1% Triton) for 45 min at room temperature. The sections were stained for c-Fos with an antibody directed against the amino acid residues 4-17 in rabbit anti-human c-Fos (Calbiochem, 1:30,000) for 48 h at 4° C. The sections were then washed 6 times with PBS/0.1% Triton before incubation for 1.5 h at room temperature with biotinylated goat anti-rabbit IgG (1:600) in blocking serum (Vector Laboratories). Thereafter the sections were visualized with DAB (Vectastain ABC kit) and developed until the color reached the required intensity in the control sections. The reaction was stopped by immersion of the slides in distilled water. After the staining was completed, sections were mounted on superfrost slides (Fisher Scientific), air-dried for 1-2 days and coverslipped with Permount. Sections were examined using light microscopy to identify c-Fos-positive cells.

c-Fos [4] = assay: c-Fos activation in brain after IP injection; format: in vivo, mice
Method: as §2

RIN 1046-38 cells = assay: insulin secretion in RIN 1046-38 cells; format: cell-based; settings: rat insulinoma cells, concentration-dependent
Method: Rat insulinoma cell line, RIN1046-38 cells, was obtained from Dr. Samuel A. Clark and cultured with 5% CO2 at 37° C. in M199 medium (Cellgro) as previously described (Wang et al., 2001, Endocrinology, 142: 1820-1827). […] Exendin-9-39 (1 μmol/l: Bachem), an inhibitor of the GLP-1R. was also added overnight to one set of experiments. The supernatant was then collected and saved at −80° C. for determination of insulin content by ELISA (Crystal Chems). Cells were lysed and the protein content was quantified using the Bradford method.

isolated rat islets = assay: insulin secretion in isolated rat islets; format: cell-based; settings: concentration-dependent
Method: Islets from Sprague-Dawley rats were isolated as we previously described, with some modification (Wang et al., 1997, J. Clin. Invest. 99: 2883-2889). Briefly, pancreata were digested by Collagenase Type XI (Sigma) and islets separated through a Ficoll-Paque gradient (Amersham Biosciences). The isolated islets were washed several times using Hanks Balanced Salts Solution (Biosource) containing 0.2% bovine serum albumin (BSA, Sigma), hand-picked and cultured overnight with 5% CO2 at 37° C. in M199 medium supplemented with 5 mM glucose. Rat islets were then treated similarly to (30-40 per well) to RIN cells as described above.

[5] = GLP-1-Tf in serum of cynomolgus monkeys (Example 4); format: in vivo, cynomolgus monkeys (Macaca fascicularis); settings: cAMP in CHO/GLP-1R
non-diabetic mice [6] = assay: IPGTT in non-diabetic mice after IP administration; format: in vivo; settings: IP 1 and 10 mg/kg
Method: Intraperitoneal (IP) glucose tolerance testing (IPGTT) (0.5 g/kg body weight) was carried out after an overnight fast in non-diabetic mice. Tf and GLP-1-Tf were administered IP 30 min before the glucose injection. Blood glucose levels (Glucometer Elite, Bayer) were measured at 0, and 30 and 60 min and plasma insulin levels at 0 and 30 min after the IPGTT.

non-diabetic mice [7] = assay: blood glucose after SC administration, ad libitum fed non-diabetic mice; format: in vivo
diabetic db/db mice [8] = assay: overnight fast and IPGTT in diabetic mice after SC administration; format: in vivo
Method: A group of diabetic mice were given Tf or GLP-1-Tf via SC administration at 9 pm, fasted overnight and an IPGTT performed the next morning. The fasted Tf-treated animals had lower fasting blood glucose than ad libitum fed animals (238±39 versus 358±23 mg/dl; compare 0 time/fasted animals of FIG. 10c with 0 time/fed animals of FIG. 10a), and additionally, the animals given 1 or […] had lower fasting blood glucose (132±27 mg/dl) than those given Tf alone.

non-diabetic mice [9] = assay: food intake and post-prandial blood glucose, non-diabetic mice; format: in vivo
Method: as §1

db/db mice [10] = assay: β-cell proliferation (BrdU) and β-cell mass in db/db mice; format: in vivo; settings: for increase in total β-cell mass: 10 mg/kg
Method: db/db mice, 6 per time point, received one IP injection of Tf (10 mg/kg) or GLP-1-Tf (10 mg/kg) and were sacrificed 1, 2 and 3 days later for measurement of β-cell proliferation and 3, 5, 8 and 10 days later for measurement of islet mass. Sixty mg/kg 5-bromo-2-deoxyuridine (BrdU, Sigma) was injected IP 6 hours before sacrifice. BrdU is a thymidine analog that is incorporated during S-phase of cell mitosis. Pancreata were removed, fixed overnight in 4% buffered formalin, processed for embedding in paraffin and histological sections (4 μm) mounted on poly-1-lysine-coated glass slides. BrdU was detected with a BrdU antibody (Sigma, 1:500 and also confirmed with Zymed antibody, 1:250) and BrdU staining kit (Zymed Laboratories Inc). Five to six hundred islets from each condition were then visualized and the number of islets that contained BrdU+ cells as well as the percent BrdU+ nuclei per total number of islet cells was quantified. For insulin staining and determination of β-cell mass histological sections were treated with a guinea-pig insulin antibody (Linco). Antibody binding was visualized with 3,3-diaminobenzidine (DAB) and sections counterstained with hematoxylin (Vectastain ABC kit, Vector Laboratories, using goat anti-guinea pig IgG). The sections were examined using a video camera connected to a computer with imaging software. Sectioned tissue images were acquired through a 2.5× objective of a phase contrast light microscope (Carl Zeiss) and digitized by means of a Sony Power HAD digital camera (an average of 20-30 images per section). The total pancreatic area and β-cell positive area for every image were quantified using MetaMorph 4.6.3 software (Universal Imaging Inc., West Chester).

c-Fos [11] = assay: c-Fos activation in brain after ICV injection; format: in vivo, mice
Method: Briefly, mice that received IP injections were anesthetized with isoflurane 2 h later and the mice that received ICV injections were anesthetized 1.5 and 24 h later. Intracardiac perfusion with ice-cold 4% paraformaldehyde was immediately carried out. Brains were removed immediately at the end of perfusion, kept in ice-cold 4% parafor maldehyde for 72 h, and then transferred to a solution containing 4% paraformaldehyde and 25% sucrose until they floated. Each brain as cut into 30 μm sections using a sliding microtome with a freezing stage. Brain sections from each animal were placed in a 12-well plate and then processed for immunocytochemistry. The free-floating sections from each animal were first incubated in 0.3% H2O2 for 30 min and then washed 3 times in PBS for 5 min/rinse. Thereafter the sections were incubated in blocking serum (normal goat serum/PBS/0.1% Triton) for 45 min at room temperature. The sections were stained for c-Fos with an antibody directed against the amino acid residues 4-17 in rabbit anti-human c-Fos (Calbiochem, 1:30,000) for 48 h at 4° C. […]
In another series of experiments, Tf and GLP-1-Tf were administered intracerebrovenitricular (ICV) and c-Fos activation assessed 1.5 and 24 hours later.

diabetic db/db mice [12] = system: diabetic db/db mice
Method: Male diabetic db/db mice (C57BLKS/J-Lepr^db/Lepr^db) lacking a functioning leptin receptor and their non-diabetic heterozygous littermates were purchased at 4 weeks of age from Jackson Laboratories (Bar Harbor). They were housed, two per cage and fed ad libitum for at least five days before any testing. The same mice were caged together for the duration of the studies.
Plasma insulin levels were measured at 1 and 4 hours.

[13] = compared to hTf-treated animals
[14] = 10 mg/kg, 2 h after administration

## Carbohydrate deficient transferrin: transferrin form elevated in the blood of alcoholic individuals
[1]
  half life: 14 to 17 days

## exendin-4 [reference compound]
db/db mice [2]; 1 nmol/kg IP
  food intake in the remaining 17 h: caused a decrease in food intake
  time for which essentially all measurable food consumption was prevented: 7 h
[3]
  AP c-Fos response compared to GLP-1-Tf: much more robust
c-Fos [4]; IP 1 nmol/kg
  brain areas with c-Fos activation: activated similar areas to GLP-1-Tf in all injected animals

## glycosylated transferrin: glycosylated serum transferrin
[1]
  half life: 7 to 10 days

## pREX0585: nL GLP-1 (7-37; A8G, K34A) (PEAPTD)2 mTf; mTf lacking N-glycosylation at sites 413 and 611
RIN 1046-38 cells
  insulin secretion: stimulate insulin secretion
Isolated rat islets
  insulin secretion: stimulate insulin secretion
[5]
  activity of GLP-1-Tf in serum from the injected monkeys on CHO/GLP-1R: biologically active
non-diabetic mice [6]; 30 min before glucose
  insulin secretion: enhanced insulin secretion
non-diabetic mice [6]; IPGTT
  peak blood glucose: decreased
non-diabetic mice [7]
  time for blood glucose to rise to pre-administration levels: ≤ 24 h
non-diabetic mice [7]; ad libitum fed
  blood glucose concentration and insulin secretion: dose-dependently reduced blood glucose concentration and increased insulin secretion
non-diabetic mice [7]; higher dose 10 mg/kg
  persistence of low blood glucose: up to 36 hours
non-diabetic mice [7]; within 3 hours of administration
  blood glucose level: 70 mg/dL
Diabetic db/db mice [8]; SC at 9 pm, fasted overnight, GLP-1-Tf 1 or 10 mg
  fasting blood glucose: 132 ± 27 mg/dL
Diabetic db/db mice [8]; [13]
  glucose levels after the IPGTT: lower glucose levels
  plasma insulin levels after the IPGTT: higher plasma insulin levels
non-diabetic mice [9]; 0.1, 1 and 10 mg/kg, compared to Tf only
  post-prandial blood glucose levels: lower
non-diabetic mice [9]; IP 1 mg/kg
  time for which food intake was decreased by approximately half: 2 h
non-diabetic mice [9]; IP 10 mg/kg
  time for which food intake was decreased by approximately half: up to 7 h
db/db mice [2]; 0.1, 1 and 10 mg/kg, compared to Tf treatment
  post-prandial blood glucose levels: lowered post-prandial blood glucose levels
db/db mice [2]; IP 1 and 10 mg/kg
  time for which food intake was decreased by approximately half: 2 h
db/db mice [10]; 10 mg/kg IP, compared to Tf
  number of BrdU+ nuclei in islets 24 hours after injection: clear increase in the number of BrdU+ nuclei
db/db mice [10]; 10 mg/kg IP, third day
  islets with 1 or more BRDU+ nuclei: all islets
db/db mice [10]; 10 mg/kg IP, third day, vs Tf, p<0.01
  increase in BRDU+ nuclei: 4.7 fold
db/db mice [10]; 3 days, compared to Tf
  increase in total β-cell mass: 1.7 fold
db/db mice [10]; 5 days, compared to Tf
  increase in total β-cell mass: 2.2 fold
db/db mice [10]; 8 days, compared to Tf
  increase in total β-cell mass: 4.1 fold
db/db mice [10]; 10 days, compared to Tf
  increase in total β-cell mass: 4.3 fold
c-Fos [4]; 1 mg/kg
  c-Fos activation, AP: 0/6
  c-Fos activation, NTS: 6/6
  c-Fos activation, PVH: 6/6
c-Fos [4]; [14]
  c-Fos activation, area postrema (AP): 4/6
  c-Fos activation, nuclei of the solitary tract (NTS): 6/6
  c-Fos activation, paraventricular nuclei of the hypothalamus (PVH): 6/6
c-Fos [11]; 1.5 h
  c-Fos activation ninety minutes after ICV injection: c-Fos activation had occurred in PVH and NTS but not AP
c-Fos [11]; 24 h
  c-Fos activation 24 h after ICV injection: not present in any of the three brain regions
Diabetic db/db mice [12]; SC 0.1 mg/kg
  plasma insulin levels at 1 hour: increased plasma insulin levels
Diabetic db/db mice [12]; SC 1 and 10 mg/kg
  beginning of blood glucose effect after injection: 1 h
  duration of increased plasma insulin levels: ≥ 4 h
Diabetic db/db mice [12]; SC both 1 and 10 mg/kg, ad libitum, from 358±23
  blood glucose: 115 ± 18 mg/dL
Diabetic db/db mice [12]; SC highest dose
  duration of effect on blood glucose: at least 12 hours
Diabetic db/db mice [12]; SC low dose 0.1 mg/kg
  duration of blood glucose lowering: 4 h
